Results reported in publication PMC7824442, “In Escherichia coli Ammonia Inhibits Cytochrome bo3 But Activates Cytochrome bd-I” (Antioxidants, 2020).

Experiments:
cytochrome bd-I = target: T1, cytochrome bd-I (Escherichia coli, UniProt P0ABJ9); assay: UV-visible absorption titration of the isolated oxidized enzyme at pH […] (Soret region, […] nm); activation of O2 reductase activity also shown; format: binding
T1 construct: gene cydA; isolated cytochrome bd-I; with other subunits of the four-subunit cytochrome bd-I complex
T1 sequence (P0ABK2 whole entry): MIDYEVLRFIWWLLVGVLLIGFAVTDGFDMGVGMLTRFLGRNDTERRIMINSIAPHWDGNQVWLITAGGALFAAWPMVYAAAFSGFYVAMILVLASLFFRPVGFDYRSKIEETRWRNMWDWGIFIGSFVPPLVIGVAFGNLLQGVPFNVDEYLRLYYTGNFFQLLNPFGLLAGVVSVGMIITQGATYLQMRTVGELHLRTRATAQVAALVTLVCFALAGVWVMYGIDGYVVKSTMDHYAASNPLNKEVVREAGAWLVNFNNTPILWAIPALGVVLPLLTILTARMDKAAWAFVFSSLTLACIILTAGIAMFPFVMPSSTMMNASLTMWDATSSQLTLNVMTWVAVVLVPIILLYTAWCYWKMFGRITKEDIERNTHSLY
T1 sequence (P0ABJ9 whole entry): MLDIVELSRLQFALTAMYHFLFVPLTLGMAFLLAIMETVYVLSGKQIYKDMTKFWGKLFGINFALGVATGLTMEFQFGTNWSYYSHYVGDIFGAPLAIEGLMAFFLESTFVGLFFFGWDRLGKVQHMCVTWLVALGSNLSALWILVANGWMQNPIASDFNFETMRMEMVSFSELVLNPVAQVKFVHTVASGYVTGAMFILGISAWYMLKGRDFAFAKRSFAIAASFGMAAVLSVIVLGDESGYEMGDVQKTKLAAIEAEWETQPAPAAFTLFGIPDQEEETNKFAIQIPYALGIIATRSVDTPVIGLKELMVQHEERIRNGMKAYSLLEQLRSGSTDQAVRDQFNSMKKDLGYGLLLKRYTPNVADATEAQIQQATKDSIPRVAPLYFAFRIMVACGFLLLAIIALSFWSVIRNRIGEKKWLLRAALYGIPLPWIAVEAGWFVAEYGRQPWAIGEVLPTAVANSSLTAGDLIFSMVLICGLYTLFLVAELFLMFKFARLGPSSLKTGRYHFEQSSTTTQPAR

cytochrome bo3 = target: T2, cytochrome bo3 (Escherichia coli, UniProt P0ABI8); assay: UV-visible absorption titration of the isolated oxidized enzyme at pH […] (Soret region, […] nm); inhibition of O2 reductase activity also shown; format: binding
T2 construct: gene cyoB; isolated four-subunit His-tagged cytochrome bo3; with other subunits of the four-subunit cytochrome bo3 complex
T2 sequence (P0ABJ1 25-315): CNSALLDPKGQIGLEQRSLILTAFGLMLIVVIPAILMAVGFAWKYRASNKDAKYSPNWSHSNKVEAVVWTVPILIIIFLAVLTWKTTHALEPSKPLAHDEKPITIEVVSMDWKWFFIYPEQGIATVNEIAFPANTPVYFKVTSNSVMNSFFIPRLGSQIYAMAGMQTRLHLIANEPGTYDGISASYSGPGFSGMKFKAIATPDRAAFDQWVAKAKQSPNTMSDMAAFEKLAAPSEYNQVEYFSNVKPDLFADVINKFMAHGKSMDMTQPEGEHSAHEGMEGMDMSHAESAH
T2 sequence (P0ABJ6 whole entry, further chain): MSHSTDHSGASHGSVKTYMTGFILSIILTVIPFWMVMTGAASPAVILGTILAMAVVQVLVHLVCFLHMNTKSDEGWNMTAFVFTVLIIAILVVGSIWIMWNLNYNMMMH
T2 sequence (P0ABI8 whole entry): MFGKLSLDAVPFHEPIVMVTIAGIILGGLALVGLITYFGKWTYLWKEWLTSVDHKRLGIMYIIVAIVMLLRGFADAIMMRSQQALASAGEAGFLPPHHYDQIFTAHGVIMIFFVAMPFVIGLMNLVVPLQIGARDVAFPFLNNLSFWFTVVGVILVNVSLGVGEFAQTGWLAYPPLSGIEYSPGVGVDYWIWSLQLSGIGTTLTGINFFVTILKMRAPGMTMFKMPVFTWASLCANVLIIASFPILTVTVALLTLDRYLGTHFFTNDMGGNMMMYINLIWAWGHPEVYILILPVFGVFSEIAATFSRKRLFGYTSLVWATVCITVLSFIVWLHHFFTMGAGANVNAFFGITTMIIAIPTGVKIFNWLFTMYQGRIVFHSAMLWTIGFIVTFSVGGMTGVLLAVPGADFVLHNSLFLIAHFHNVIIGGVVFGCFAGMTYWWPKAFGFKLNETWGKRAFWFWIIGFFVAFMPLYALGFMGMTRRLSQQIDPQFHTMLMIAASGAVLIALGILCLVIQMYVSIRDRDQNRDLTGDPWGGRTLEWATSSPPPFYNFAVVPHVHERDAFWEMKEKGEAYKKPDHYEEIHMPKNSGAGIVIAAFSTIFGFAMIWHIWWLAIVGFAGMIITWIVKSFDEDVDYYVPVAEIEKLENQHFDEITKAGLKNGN
T2 sequence (P0ABJ3 whole entry, further chain): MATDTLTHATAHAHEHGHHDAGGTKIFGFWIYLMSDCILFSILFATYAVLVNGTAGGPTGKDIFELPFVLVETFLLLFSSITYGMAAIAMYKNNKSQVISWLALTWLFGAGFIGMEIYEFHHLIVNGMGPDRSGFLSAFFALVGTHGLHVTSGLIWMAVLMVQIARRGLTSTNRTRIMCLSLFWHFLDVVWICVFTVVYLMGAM

N [ammonia]
Kd (cytochrome bd-I): 7.2 ± 1.4 mM
Kd (cytochrome bo3): 4.9 ± 0.5 mM
